In patent US10858355B2, “Inhibitors of phosphatidylinositol 3-kinase gamma” (AstraZeneca AB, priority 2016, dated 2020):

Target: recombinant human PI3Kγ (aa144-1102)-6His (Homo sapiens (Human), UniProt P48736)
Experiment: Test A: Enzymatic Activity Assay for Rec Human PI3Kγ (ADP-Glo)
Format: biochemical
Settings: 20 μM ATP, 80 μM DiC8-PIP2, 1.2 nM PI3Kγ, 15 min pre-incubation, 60 min reaction
Experimental: Pharmacological Activity Test A: Enzymatic Activity Assay for Rec Human PI3Kγ
The activity of recombinant human PI3Kγ (aa144-1102)-6His was determined by measuring the ADP level after phosphorylation of DiC8-PIP2 using a commercially available ADP-Glo™ kit from Promega. The assay was carried out in white low volume 384 well plates in a final volume of 14 μl at rt. The assay conditions contained the following: 50 mM Tris buffer pH 7.4, 2.1 mM DTT, 3 mM MgCl2, 0.05% CHAPS, 20 μM ATP, 80 μM DiC8-PIP2 and 1.2 nM PI3Kγ. […] Routinely, inhibitors were pre-incubated with 3 μl of PI3Kγ for 15 min prior to the addition of […] substrate mixture for a further 60 min enzyme reaction. The phosphorylation was stopped with the addition of 3 μl ADP-Glo™ reagent (stop solution) followed by a 40 min incubation. Prior to detection 6 μl of ADP-Glo™ Kinase Detection Reagent was added and the plates were read in a micro plate reader using a Luminescence filter.

Chain of recombinant human PI3Kγ (aa144-1102)-6His (P48736 144-1102): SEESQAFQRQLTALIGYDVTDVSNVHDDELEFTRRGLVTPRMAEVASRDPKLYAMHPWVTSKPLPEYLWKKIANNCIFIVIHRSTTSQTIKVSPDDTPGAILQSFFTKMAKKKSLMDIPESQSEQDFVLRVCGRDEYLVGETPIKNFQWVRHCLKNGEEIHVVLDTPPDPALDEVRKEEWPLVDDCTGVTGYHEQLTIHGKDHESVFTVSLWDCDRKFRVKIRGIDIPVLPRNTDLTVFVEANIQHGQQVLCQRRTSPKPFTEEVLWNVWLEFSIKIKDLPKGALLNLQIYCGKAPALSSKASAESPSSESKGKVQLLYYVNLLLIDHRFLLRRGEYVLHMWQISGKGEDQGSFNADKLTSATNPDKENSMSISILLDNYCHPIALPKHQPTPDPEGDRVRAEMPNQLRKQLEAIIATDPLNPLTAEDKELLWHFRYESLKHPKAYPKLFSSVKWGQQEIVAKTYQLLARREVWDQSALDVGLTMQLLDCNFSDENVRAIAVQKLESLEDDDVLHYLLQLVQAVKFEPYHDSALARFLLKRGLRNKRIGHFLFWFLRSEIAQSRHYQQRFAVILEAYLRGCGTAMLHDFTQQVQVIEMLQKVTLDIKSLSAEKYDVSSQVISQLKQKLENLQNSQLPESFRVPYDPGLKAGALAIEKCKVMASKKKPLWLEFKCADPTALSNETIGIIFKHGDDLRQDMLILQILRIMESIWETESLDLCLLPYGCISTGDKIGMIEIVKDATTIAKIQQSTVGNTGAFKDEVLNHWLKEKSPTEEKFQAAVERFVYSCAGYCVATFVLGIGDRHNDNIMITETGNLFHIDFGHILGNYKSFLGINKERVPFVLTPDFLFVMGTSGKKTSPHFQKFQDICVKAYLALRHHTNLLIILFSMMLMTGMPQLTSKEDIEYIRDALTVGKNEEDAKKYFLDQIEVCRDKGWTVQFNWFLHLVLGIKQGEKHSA

SMILES	PI3Kγ activity, pIC50
CC(=O)Nc1nc(C)c(-c2cc3c(c(S(N)(=O)=O)c2)C(=O)N(C(C)C)C3)s1 [Example 21, N-{4-Methyl-5-[1-oxo-2-(propan-2-yl)-7-sulfamoyl-2,3-dihydro-1H-isoindol-5-yl]-1,3-thiazol-2-yl}acetamide]	8.9
CC(=O)Nc1nc(C)c(-c2cc3c(c(NS(=O)(=O)C4CC4)c2)C(=O)N([C@@H](C)C2CC2)C3)s1 [Example 23, N-(5-{2-[(1S)-1-Cyclopropylethyl]-7-[(cyclopropylsulfonyl)amino]-1-oxo-2,3-dihydro-1H-isoindol-5-yl}-4-methyl-1,3-thiazol-2-yl)acetamide]	9.2
CC(=O)Nc1nc(C)c(-c2cc3c(c(S(=O)(=O)Nc4cccc(C#N)c4)c2)C(=O)N(C(C)C)C3)s1 [Example 37, N-(5-{7-[(3-Cyanophenyl)sulfamoyl]-1-oxo-2-(propan-2-yl)-2,3-dihydro-1H-isoindol-5-yl}-4-methyl-1,3-thiazol-2-yl)acetamide]	9.0
CC(=O)Nc1nc(C)c(-c2cc3c(c(NS(=O)(=O)c4cn(C)nc4C)c2)C(=O)N([C@@H](C)C2CC2)C3)s1 [Example 29, N-[5-(2-[(1S)-1-Cyclopropylethyl]-7-{[(1,3-dimethyl-1H-pyrazol-4-yl)sulfonyl]amino}-1-oxo-2,3-dihydro-1H-isoindol-5-yl)-4-methyl-1,3-thiazol-2-yl]acetamide]	8.9
CC(=O)Nc1nc(C)c(-c2cc3c(c(S(C)(=O)=O)c2)C(=O)N(C(C)C)C3)s1 [Example 3, N-{4-Methyl-5-[7-(methylsulfonyl)-1-oxo-2-(propan-2-yl)-2,3-dihydro-1H-isoindol-5-yl]-1,3-thiazol-2-yl}acetamide]	8.8
CNS(=O)(=O)c1cc(-c2cnc(NC(C)=O)s2)cc2c1C(=O)N([C@@H](C)C1CC1)C2 [Example 8, N-(5-{2-[(1S)-1-Cyclopropylethyl]-7-(methylsulfamoyl)-1-oxo-2,3-dihydro-1H-isoindol-5-yl}-1,3-thiazol-2-yl)acetamide]	9.0
